We go through 17 compounds from publication PMC5155426, “Organic Redox Species in Aqueous Flow Batteries: Redox Potentials, Chemical Stability and Solubility” (Scientific Reports, 2016).

Values after ≈ are worked out from the molar mass of the structure shown. Values joined by “and” are separate entries in the source; they are usually repeats but may differ in a detail not shown here. Identical values can stand only once. A value given as a limit tells only on which side of the number the result lay.

The nature of data set [1]: Cyclic voltammetry: formal redox potential, peak current ratio, electrochemical reversibility. It is filed as physicochemical. Conditions: for formal redox potential E0': midpoint of CV peak potentials; for pH dependence (slope) of E0': pH 0 to pH 13. Here is the method: The investigated compounds were used as-purchased and without any purification. […] For each series of CVs, a freshly polished electrode was used. The CVs for soluble compounds in 1 mM concentration were recorded in a glass beaker with a customized lid in nitrogen purged solutions of three different pHs, namely pH 0 (1 M H2SO4), pH 7 (0.5 M phosphate buffer) and pH 13 (1 M NaOH). The pH of the NaOH solution is taken as 13 to account for carbonization of the solution with exposure to air. A background CV was recorded before each CV experiment to exclude background contaminations. The CVs of insoluble compounds in 1 M H2SO4, or 0.5 M phosphate buffer were recorded as follows: 6 mL of the supporting electrolyte was mixed with approximately 4 mL of acetone, and then a small amount of the quinone was added so that its concentration was around 1 mM.
Each CV was analyzed in terms of peak potentials and peak currents. Peak currents were determined by subtracting a polynomial fit of the background from the recorded current as exemplified in Supplementary, S1. A plot of the absolute values of the peak currents to the square root of the scan rate was constructed and, when reasonable, a linear fit included to evaluate the electrochemical (Nernstian) reversibility of the electrochemical reaction. The peak current Ip for reversible reactions are given by equation (1).
Where F is the Faraday constant, R the gas constant, T the temperature, n the number of electron transferred, A the area of the electrode, DOthe diffusion coefficient and CO^*the bulk concentration of the analyte and v the scan rate. The peak current ratio is expected to be close to one for reversible species. The formal redox potential (E^0’), which is the adjusted form of the standard redox potential, where effects of the medium is taken into account, is reported here as the midpoint potential between the two peak potentials in the CV[24]. All half-cell potentials in this work refer to the normal hydrogen electrode (VNHE).

Data set [2] is described as follows: Aqueous solubility estimation (OECD test #105) in 1 M supporting electrolytes. On the procedure: After each addition the test tube was ultrasonicated and/or shaken vigorously using a Vortex Generator for at least 10 minutes at room temperature. Then the tube was inspected visually for undissolved sample and the addition of supporting electrolyte solution continued until the sample seemed just dissolved. The volumes just before and after full dissolution are used for calculating the solubility interval (Supplementary, S4 and S5) and the solubility is estimated as the average between the two.

Where [3] appears, read: 1 M H2SO4 supporting electrolyte prepared from MilliQ water, aqueous buffer, thermodynamic from solid, Solubility, 1 M H2SO4, room temperature, interval just after / before full dissolution.
Where [4] appears, read: 1 M KCl supporting electrolyte prepared from MilliQ water, saline or isotonic, thermodynamic from solid, Solubility, 1 M KCl, room temperature.
The mark [5] stands for this setting: pH 0 (1 M H2SO4), about 1 mM, acetone added for insoluble compounds.
The mark [6] stands for this setting: 1 M KOH supporting electrolyte prepared from MilliQ water, aqueous buffer, thermodynamic from solid, Solubility, 1 M KOH, room temperature.
The mark [7] stands for this setting: water / supporting electrolytes as worded.

On to `O=C1c2cccc(O)c2C(=O)c2cccc(O)c21` [AQDH(1,5), 1,5-dihydroxy-9,10-anthraquinone], for which, in data set [1] (pH 13), the Electrochemical reversibility result is reported as “Quasireversible” and the Peak current ratio is recorded as 0.79(9). The solubility (commonly how much of the substance goes into solution per volume) in data set [2] (setting [3]) was below 10 mM. Also, the solubility in data set [2] (setting [4]) was below 10 mM.
For the compound `Nc1c(S(=O)(=O)[O-])cc(Br)c2c1C(=O)c1ccccc1C2=O.[Na+]` [AQS(2)NBr, 1-amino-4-bromo-9,10-anthraquinone-2-sulfonate sodium], the “formal redox potential E0'” value in data set [1] (setting [5]) was 0.14(4) VNHE. In data set [1] (pH not specified), the Electrochemical reversibility entry is reported as “Quasireversible”.
As for `O=C1c2ccc(O)c(O)c2C(=O)c2c(O)ccc(O)c21` [AQTH(1,2), 1,2,5,8-tetrahydroxy-9,10-anthraquinone], the “formal redox potential E0'” value in data set [1] (setting [5]) is -0.084(5) VNHE; in data set [1] (pH 7 (0.5 M phosphate buffer)) it was -0.414(3) VNHE; in data set [1] (pH 13 (1 M NaOH)), -0.69(1) VNHE. The Electrochemical reversibility entry in data set [1] (pH 13) is “Reversible”. In data set [1] (pH 13), the Peak current ratio was 0.96(6). Also, the solubility in data set [2] (setting [3]) and in data set [2] (setting [4]) was below 10 mM in each case.
For `O=C1c2c(O)ccc(O)c2C(=O)c2c(O)ccc(O)c21` [AQTH(1,4), 1,4,5,8-tetrahydroxy-9,10-anthraquinone], in data set [1] (alkaline), the “E0' more negative compared to AQDH(1,4)” value was “approximately 100 mV”. Besides, the “formal redox potential E0'” value in data set [1] (setting [5]) is on record as 0.200(4) VNHE. Besides, in data set [1] (pH 13), the Electrochemical reversibility result was “Reversible” and the Peak current ratio is listed as 1.2(1). Further, in data set [2] (setting [3]), the solubility is below 10 mM. Besides, the solubility in data set [2] (setting [4]) was below 10 mM. For the same compound, the “solubility compared to AQDH(1,4)” value in data set [2] (alkaline) is on record as “only half the solubility”.
Turning to `Cc1cc(O)c2c(c1)C(=O)c1cc(O)cc(O)c1C2=O` [AQTrHM, 1,3,8-trihydroxy-6-methylanthracene-9,10-dione], the Peak current ratio in data set [1] (pH 0) is on record as 0.15(4); in data set [1] (pH 7), 0.19(6); in data set [1] (pH 13), 0.2(2). The “formal redox potential E0'” value in data set [1] (setting [5]) was -0.04(1) VNHE; in data set [1] (pH 7 (0.5 M phosphate buffer)), -0.386(2) VNHE; in data set [1] (pH 13 (1 M NaOH)), -0.63(1) VNHE. Moreover, the Electrochemical reversibility result in data set [1] (pH not specified) is given as “Reversible”. Further, the solubility in data set [2] (setting [3]) and in data set [2] (setting [4]) was below 10 mM in each case.
For `O=C1C=C(O)C(=O)C=C1O` [BQ(1,4)DH, 2,5-dihydroxy-1,4-benzoquinone], the Peak current ratio is given as 0.87(4) in data set [1] (pH 0), 1.1(2) in data set [1] (pH 7) and 0.8(1) in data set [1] (pH 13). Moreover, in data set [1] (pH 0), the “reduction of E0' compared to the parent BQ compound” value turned out to be 300 mV. In addition, the “formal redox potential E0'” value in data set [1] (setting [5]) was 0.382(4) VNHE and 0.38 VNHE. Further, the “pH dependence (slope) of E0'” value in data set [1] was around −90 mV/pH unit. For the same compound, the Electrochemical reversibility entry in data set [1] (pH not specified) was “Quasireversible”. Moreover, the solubility in data set [2] (setting [3]) and in data set [2] (setting [4]) was below 10 mM in each case.
Turning to `O=C1C(O)=C(Cl)C(=O)C(O)=C1Cl` [BQ(1,4)DHDCl, 2,5-dichloro-3,6-1,4-benzoquinone], the “change of E0' from acidic (pH 0) to alkaline (pH 13)” value in data set [1] (13 pH units) amounted to 0.99 V. Besides, the Electrochemical reversibility result is on record as “Reversible” in data set [1] (pH 0), “Quasireversble” in data set [1] (pH 7) and “Quasireversble” in data set [1] (pH 13). Further, the Peak current ratio in data set [1] (pH 0) is 1.3(1); in data set [1] (pH 7), 1.2(4); in data set [1] (pH 13) it was 0.8(2). The “formal redox potential E0'” value in data set [1] (setting [5]) is 0.394(1) VNHE. Also, the “pH dependence (slope) of E0'” value in data set [1] is on record as −76 mV/pH unit. Moreover, the solubility in data set [2] (setting [3]) is below 10 mM; in data set [2] (setting [4]) it was 10 mM (≈ 2090 µg/mL); in data set [2] (setting [6]) it was below 10 mM. For the same compound, the “aqueous solubility, qualitative” value in data set [2] (setting [7]) is recorded as “insoluble in water”.
As to `O=C1C(O)=C(O)C(=O)C(O)=C1O` [BQ(1,4)TH, Tetrahydroxy-1,4-benzoquinone], the “formal redox potential E0'” value in data set [1] (setting [5]) is given as 0.28 VNHE. Besides, the Electrochemical reversibility result was “Quasireversible” in data set [1] (pH 6.2), “Quasireversible” in data set [1] (pH 13) and “completely loses its electrochemical activity” in data set [1] (pH not specified). Moreover, the solubility in data set [2] (setting [3]), in data set [2] (setting [4]) and in data set [2] (setting [6]) was below 10 mM each time.
For the compound `Oc1ccccc1O` [HQ(1,2), Ortho hydroquinone], the results for the Electrochemical reversibility entry in data set [1] (pH 0), in data set [1] (pH 7) and in data set [1] (pH 13) were “Quasireversible”, “Quasireversible” and “Irreversible”, respectively.
For `O=S(=O)(O)c1cc(O)c(O)c(S(=O)(=O)O)c1` [HQ(1,2)DS, 4,5-dihydroxy-1,3-benzenedisulfonate disodium monohydrate], the reduction/oxidation peak ratio result in data set [1] (all pH values) was “significantly low”. The Peak current ratio in data set [1] (pH 0) was 0.4(1). For the same compound, the “formal redox potential E0'” value was 0.86(3) VNHE in data set [1] (setting [5]) and 0.7 VNHE in data set [1] (pH 7 (0.5 M phosphate buffer)). Also, the Electrochemical reversibility entry in data set [1] (pH not specified) is given as “Quasireversible”. The “increase of E0' relative to ortho-BQ” value in data set [1] (two sulfonate groups) came to 50 mV.
In the case of `Oc1ccc(O)cc1` [HQ(1,4), Para hydroquinone], the Electrochemical reversibility result in data set [1] (pH 0) and in data set [1] (pH 7) was “Quasireversible” in each case. Moreover, the Peak current ratio in data set [1] (pH 0) was 2.3(1); in data set [1] (pH 7) it was 1.2(3). For the same compound, the “formal redox potential E0'” value in data set [1] (setting [5]) is 0.669(5) VNHE; in data set [1] (pH 7 (0.5 M phosphate buffer)), 0.433(7) VNHE; in data set [1] (pH 13 (1 M NaOH)), 0.11(1) VNHE.
As to `O=S(=O)([O-])c1cc(O)ccc1O.[K+]` [HQ(1,4)S, 2,5-dihydroxybenzenesulfonate potassium], the “formal redox potential E0'” value is 0.664(8) VNHE in data set [1] (setting [5]), 0.471(4) VNHE in data set [1] (pH 7 (0.5 M phosphate buffer)) and -0.07(1) VNHE in data set [1] (pH 13 (1 M NaOH)). Besides, in data set [1] (pH not specified), the Electrochemical reversibility result was “Quasireversible”.
On to `Oc1c(Cl)c(Cl)c(O)c(Cl)c1Cl` [HQ(1,4)TCl, Tetrachloro hydroquinone], for which the Peak current ratio is on record as 0.72(5) in data set [1] (pH 0) and 1.1(2) in data set [1] (pH 7). For the same compound, the “formal redox potential E0'” value in data set [1] (setting [5]) is recorded as 0.70(1) VNHE; in data set [1] (pH 7 (0.5 M phosphate buffer)), 0.277(1) VNHE; in data set [1] (pH 13 (1 M NaOH)) it was 0.08(1) VNHE. In data set [1] (pH not specified), the Electrochemical reversibility result is “Quasireversible”. Moreover, the “aqueous solubility, qualitative” value in data set [2] is reported as “insoluble in water”. The solubility was below 10 mM in data set [2]; below 10 mM in data set [2] (aqueous buffer, thermodynamic from solid, Solubility); below 10 mM in data set [2] (saline or isotonic, thermodynamic from solid, Solubility).
`Oc1c(F)c(F)c(O)c(F)c1F` [HQ(1,4)TF, 1,2,4,5-tetrafluoro-3,6-dihydroxybenzene]: the values for the Peak current ratio in data set [1] (pH 0), in data set [1] (pH 7) and in data set [1] (pH 13) were 0.5(1), 0.21(7) and 0.2(1), respectively. For the same compound, the “formal redox potential E0'” value in data set [1] (setting [5]) was 0.707(4) VNHE; in data set [1] (pH 7 (0.5 M phosphate buffer)), 0.23(7) VNHE; in data set [1] (pH 13 (1 M NaOH)), -0.05(6) VNHE. The Electrochemical reversibility entry in data set [1] (pH not specified) was “Quasireversible”. For the same compound, in data set [2] (setting [4]), the solubility is 10 mM (≈ 1820 µg/mL).
Regarding `O=C1C=C(S(=O)(=O)O)c2ccccc2C1=O` [NQ(1,2)S, 1,2-naphtoquinone-4-sulfonate sodium], the Peak current ratio in data set [1] (pH 0) is given as 0.8(1); in data set [1] (pH 7) it was 0.52(3); in data set [1] (pH 13), 0.9(1). Moreover, the “formal redox potential E0'” value is 0.55(1) VNHE in data set [1] (setting [5]) and 0.24(1) VNHE in data set [1] (pH 7 (0.5 M phosphate buffer)). For the same compound, the Electrochemical reversibility entry in data set [1] (pH not specified) is given as “Quasireversible”. Further, the solubility in data set [2] (setting [4]) is around 10 mM; in data set [2] (setting [6]), 900 mM.
Take `O=C1C(Cl)=C(Cl)C(=O)c2c(O)ccc(O)c21` [NQ(1,4)DHDCl, 2,3-dichloro-5,8-dihydroxy-1,4-naphtoquinone]: the “formal redox potential E0'” value in data set [1] (pH 13 (1 M NaOH)) was “≈ 0.4 VNHE”. In addition, in data set [1] (pH not specified), the Electrochemical reversibility entry was “electrochemically irreversible”. In addition, the solubility in data set [2] (setting [3]), in data set [2] (setting [4]) and in data set [2] (setting [6]) was below 10 mM throughout. Also, in data set [2] (setting [7]), the “aqueous solubility, qualitative” value was “insoluble in water”.
Turning to `O=C1C=CC(=O)C=C1` [para-BQ], the “pH dependence (slope) of E0'” value in data set [1] is given as −45 mV/pH unit. Moreover, the “formal redox potential E0'” value in data set [1] (pH 13 (1 M NaOH)) was determined as 0.11 VNHE.
